The target of the assay is T1, Human HPK1, catalytic domain (Homo sapiens, UniProt Q92918).
T1 construct: purchased Carna
T1 sequence (Q92918 1-346): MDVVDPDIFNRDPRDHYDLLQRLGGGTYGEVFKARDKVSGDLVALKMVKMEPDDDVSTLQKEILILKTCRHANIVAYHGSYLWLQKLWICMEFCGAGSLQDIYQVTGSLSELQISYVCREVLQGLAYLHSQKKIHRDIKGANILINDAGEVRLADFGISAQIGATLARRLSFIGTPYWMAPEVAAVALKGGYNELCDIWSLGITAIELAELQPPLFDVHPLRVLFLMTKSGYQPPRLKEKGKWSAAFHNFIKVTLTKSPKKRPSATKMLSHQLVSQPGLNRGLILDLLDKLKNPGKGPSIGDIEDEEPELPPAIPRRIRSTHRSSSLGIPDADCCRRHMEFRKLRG
Description: HPK1-SLP76 TR-FRET assay. The class given is biochemical. As to conditions: 75 pM HPK1, 10 uM ATP, 10 nM SLP76, 30 min compound pre-incubation.

`COc1cc2c(cc1Nc1ncc(C(N)=O)c(Nc3cn(C)nc3C(F)(F)F)n1)CN(C)CC2` [Example 7-86, 2-((6-methoxy-2-methyl-1,2,3,4-tetrahydroisoquinolin-7-yl)amino)-4-((1-methyl-3-(trifluoromethyl)-1H-pyrazol-4-yl)amino)pyrimidine-5-carboxamide]: 11.8 nM corresponded to half-maximal inhibition (IC50).

For the molecule `CCn1ncc(C)c1Nc1nc(Nc2cc3c(cc2OC)CCN(C)C3)ncc1C(N)=O` [Example 7-93, 4-((1-ethyl-4-methyl-1H-pyrazol-5-yl)amino)-2-((6-methoxy-2-methyl-1,2,3,4-tetrahydroisoquinolin-7-yl)amino)pyrimidine-5-carboxamide], it took 18.5 nM to reach half-maximal inhibition (IC50). This IC50 is about 1.6-fold higher than that of the molecule before. For `COc1cc2c(cc1Nc1ncc(C(N)=O)c(N[C@H]3CCCc4cc(F)ccc43)n1)CN(C)CC2` [Example 26-47, 4-{[(1S)-6-fluoro-1,2,3,4-tetrahydronaphthalen-1-yl]amino}-2-[(6-methoxy-2-methyl-1,2,3,4-tetrahydroisoquinolin-7-yl)amino]pyrimidine-5-carboxamide], 3.01 nM corresponded to half-maximal inhibition (IC50). Turning to `COC(=O)C1CC2CC(CC(Nc3nc(Nc4cc5c(cc4OC)CCN(C)C5)ncc3C(N)=O)C2)C1` (centres unmarked) [Example 26-13, methyl 7-({5-carbamoyl-2-[(6-methoxy-2-methyl-1,2,3,4-tetrahydroisoquinolin-7-yl)amino]pyrimidin-4-yl}amino)bicyclo[3.3.1]nonane-3-carboxylate], half-maximal inhibition (IC50) was put at 0.6 nM. Next, `CN1CCc2cc(F)c(Nc3ncc(C(N)=O)c(Nc4ccccc4CO)n3)cc2C1` [Example 7-42, 2-[(6-fluoro-2-methyl-1,2,3,4-tetrahydroisoquinolin-7-yl)amino]-4-{[2-(hydroxymethyl)phenyl]amino}py-rimidine-5-carboxamide]: 0.12 nM; `COc1cc(C2CCCN2)ccc1Nc1ncc(C(N)=O)c(Nc2ccccc2C(F)(F)F)n1` (centres unmarked) [Example 8-1, 2-((2-Methoxy-4-(pyrrolidin-2-yl)phenyl)amino)-4-((2-(trifluoromethyl)phenyl)amino)pyrimidine-5-carboxamide]: 1.26 nM; `COc1cc2c(cc1Nc1ncc(C(N)=O)c(Nc3c(F)cccc3C(C)OC)n1)CN(C)CC2` (racemic) [Example 23-1, (RAC)-4-((2-fluoro-6-(1-methoxyethyl)phenyl)amino)-2-((6-methoxy-2-methyl-1,2,3,4-tetrahydroisoquinolin-7-yl)amino)pyrimidine-5-carboxamide]: 0.22 nM.

Take `COc1cc2c(cc1Nc1ncc(C(N)=O)c(Nc3cc(C)nn3Cc3ccccc3)n1)CN(C)CC2` [Example 7-91, 4-((1-benzyl-3-methyl-1H-pyrazol-5-yl)amino)-2-((6-methoxy-2-methyl-1,2,3,4-tetrahydroisoquinolin-7-yl)amino)pyrimidine-5-carboxamide]: the IC50 (usually the concentration needed to halve the response being measured) is 38.6 nM. Take `Cc1cc(Nc2ncc(C(N)=O)c(Nc3cccc4c3CCNC4=O)n2)ccc1F` [Example 25-30, 2-[(4-fluoro-3-methylphenyl)amino]-4-[(1-oxo-1,2,3,4-tetrahydroisoquinolin-5-yl)amino]pyrimidine-5-carboxamide]: the IC50 was 0.72 nM.

Turning to `COc1cc2c(cc1Nc1ncc(C(N)=O)c(N[C@@H]3c4ccccc4C[C@@H]3O)n1)CN(C)CC2` [Example 26-64, 4-{[(1R,2S)-2-hydroxy-2,3-dihydro-1H-inden-1-yl]amino}-2-[(6-methoxy-2-methyl-1,2,3,4-tetrahydroisoquinolin-7-yl)amino]pyrimidine-5-carboxamide], the concentration for half-maximal inhibition (IC50) amounted to 0.86 nM. Next, `COc1cc2c(cc1Nc1ncc(C(N)=O)c(Nc3cc(F)ccc3F)n1)CN(C)CC2` [Example 4-11, 4-[(2,5-difluorophenyl)amino]-2-[(6-methoxy-2-methyl-1,2,3,4-tetrahydroisoquinolin-7-yl)amino]pyrimidine-5-carboxamide]: 0.55 nM.
